Data reported in patent US4820834A, “Benzodiazepine analogs” (priority 1987, dated 1989).
Where two headings read alike, the source gives them in different places.

Legend:
[1] = biological target: T1, CCK receptor (brain, cerebral cortex) (Cavia porcellus, UniProt H0VZC5); experiment: biochemical; assay type: binding, Male Hartley guinea pigs; settings: guinea pig cerebral cortex, ^125 I-CCK-33, 25° C., 2 hours
T1 construct: Cerebral cortex was dissected and used as a receptor source; from tissue; host or cells: guinea pig cerebral cortex membranes (male Hartley)
T1 sequence (H0VZC5 1-426): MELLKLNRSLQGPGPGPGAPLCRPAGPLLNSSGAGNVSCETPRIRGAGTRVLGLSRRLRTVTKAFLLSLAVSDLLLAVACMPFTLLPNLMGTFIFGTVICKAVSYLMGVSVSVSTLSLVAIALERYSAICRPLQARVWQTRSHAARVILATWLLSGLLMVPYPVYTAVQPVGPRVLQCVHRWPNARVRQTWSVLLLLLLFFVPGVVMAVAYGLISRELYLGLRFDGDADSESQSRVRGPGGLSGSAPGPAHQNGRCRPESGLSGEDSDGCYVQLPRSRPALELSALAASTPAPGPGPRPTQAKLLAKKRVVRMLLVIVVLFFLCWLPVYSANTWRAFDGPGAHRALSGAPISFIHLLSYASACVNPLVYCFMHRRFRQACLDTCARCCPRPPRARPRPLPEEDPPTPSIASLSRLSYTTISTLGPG
In short: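 Guinea pig cerebral cortex homogenate as receptor source, with radiolabeled CCK-33 in HEPES buffer containing MgCl2, bacitracin, EGTA and 0.4% BSA. Incubation 2 h at 25°C; bound ligand pelleted by centrifugation and gamma-counted.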

CCK receptor (pancreas) = biological target: T2, CCK receptor (pancreas) (Rattus norvegicus, UniProt P30551); experiment: CCK Receptor Binding (Pancreas): inhibition of ^125 I-CCK-33 binding; set-up: species or system Male Sprague-Dawley rats; settings: rat pancreas membranes, ^125 I-CCK-33, 37° C., 30 minutes
T2 construct: The whole pancreas was dissected free of fat tissue and was homogenized; from tissue; host or cells: rat pancreas membranes (Sprague-Dawley)
T2 sequence (P30551 1-444): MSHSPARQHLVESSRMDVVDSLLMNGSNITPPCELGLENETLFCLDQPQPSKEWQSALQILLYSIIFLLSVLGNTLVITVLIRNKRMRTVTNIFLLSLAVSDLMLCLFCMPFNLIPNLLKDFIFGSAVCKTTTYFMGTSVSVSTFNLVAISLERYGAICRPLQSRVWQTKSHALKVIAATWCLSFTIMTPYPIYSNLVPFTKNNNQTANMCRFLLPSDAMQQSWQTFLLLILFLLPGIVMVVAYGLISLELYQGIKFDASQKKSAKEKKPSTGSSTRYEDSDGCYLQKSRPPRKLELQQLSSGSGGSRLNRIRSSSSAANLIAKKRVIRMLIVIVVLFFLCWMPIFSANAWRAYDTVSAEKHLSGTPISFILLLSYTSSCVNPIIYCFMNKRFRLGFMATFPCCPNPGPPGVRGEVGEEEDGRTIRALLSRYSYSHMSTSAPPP
Protocol: 1. CCK Receptor Binding (Pancreas)
CCK-33 was radiolabeled with ^125 I-Bolton Hunter reagent (2000 Ci/mmole) as described by Sankara et al. (J. Biol. Chem. 254: 9349-9351, 1979). Receptor binding was performed according to Innis and Snyder (Proc. Natl. Acad. Sci. 77: 6917-6921, 1980) with the minor modification of adding the additional protease inhibitors, phenylmethane sulfonyl fluoride and o-phenanthroline.
Male Sprague-Dawley rats (200-350 g) were sacrificed by decapitation. The whole pancreas was dissected free of fat tissue and was homogenized in 20 volumes of ice-cold 50 mM, Tris HCl (pH 7.7 at 25° C.) with a Brinkmann Polytron PT 10. The homogenates were centrifuged at 48,000 g for 10 min. Pellets were resuspended in Tris Buffer, centrifuged as above and resuspended in 200 volumes of binding assay buffer (50 mM Tris HCl, pH 7.7 at 25° C., 5 mM dithiothrietol, 0.1 mM bacitracin, 1.2 mM phenylmethane sulfonyl fluoride and 0.5 mM o-phenanthroline). […] All assays were run in duplicate or triplicate. The reaction mixtures were incubated at 37° C. for 30 minutes and centrifuged in a Beckman Microfuge (4 minutes) immediately after adding 1 ml of ice-cold incubation buffer. The supernatant was aspirated and discarded, pellets were counted with a Beckman gamma 5000. For Scatchard analysis (Ann. N.Y. Acad. Sci. 51: 660, 1949), ^125 I-CCK-33 was progressively diluted with increasing concentrations of CCK-33.

[2] = read-out: IC50 ^125 I-CCK Brain
[3] = read-out: IC50 ^125 I-CCK Pancreas

Row | Structure (SMILES) | IC50 (CCK receptor (pancreas); IC50 ^125 I-CCK Pancreas) [µM] | other results
1 | O=C1Nc2ccc(Cl)cc2C(c2ccccc2)=NC1Cc1cccc2ccccc12 (racemic) [Example 17, 7-Chloro-1,3-dihydro-3(RS)-(1-naphthyl)methyl-5-phenyl-2H-1,4-benzodiazepin-2-one] | 23 | IC50 ([1]; IC50 ^125 I-CCK Brain): 100 µM
2 | O=C1Nc2ccc(Cl)cc2C(c2ccccc2)=NC1Cc1ccc2ccccc2c1 (racemic) [Example 18, 7-Chloro-1,3-dihydro-3(RS)-(2-naphthyl)methyl-5-phenyl-2H-1,4-benzodiazepin-2-one] | 49 | IC50 ([1]; IC50 ^125 I-CCK Brain): 61 µM
3 | O=C1Nc2ccccc2C(c2ccccc2F)=NC1Cc1cccs1 (racemic) [Example 19, 1,3-Dihydro-5-(2-fluorophenyl)-3(RS)-(2-thienyl)methyl-2H-1,4-benzodiazepin-2-one] | 33 | IC50 ([1]; IC50 ^125 I-CCK Brain): > 100 µM
4 | O=C1Nc2ccccc2C(c2ccccc2F)=NC1c1ccsc1 (racemic) [Example 20, 1,3-Dihydro-5-(2-fluorophenyl)-3(RS)-(3-thienyl)-2H-1,4-benzodiazepin-2-one] | > 100 | –
5 | O=C1Nc2ccccc2C(c2ccccc2F)=NC1Cc1c[nH]c2ccc(F)cc12 (racemic) [Example 59, 1,3-Dihydro-3(RS)-[3'-(5'-fluoroindolyl)methyl]-5-o-fluorophenyl-2H-1,4-benzpdiazepin-2-one] | 1.4 | –
6 | O=C1Nc2ccccc2C(c2ccccc2F)=NC1Cc1c[nH]c2cc(F)ccc12 (racemic) [Example 60, 1,3-Dihydro-3(RS)-[3'-(6'-fluoroindolyl)methyl]-5-o-fluorophenyl-2H-1,4-benzodiazepin-2-one] | 1.3 | IC50 ([1]; IC50 ^125 I-CCK Brain): 100 µM
7 | O=C1Nc2ccccc2C(c2ccccc2F)=N[C@@H]1Cc1c[nH]c2ccccc12 [2 & 3] | 0.4 | –
8 | CN1C(=O)[C@@H](Cc2cn(C)c3ccccc23)N=C(c2ccccc2F)c2ccccc21 [4a & 44] | 0.36 | –
9 | CN1C(=O)/C(=C\c2ccsc2)N=C(c2ccccc2)c2ccccc21 [95 E] | 25 | –
10 | CN1C(=O)/C(=C/c2ccsc2)N=C(c2ccccc2)c2ccccc21 [95 Z] | 100 | –
11 | CN1C(=O)[C@@H](Cc2c[nH]c3ccccc23)N=C(c2ccccc2F)c2ccccc21 [Example 4b, 1,3-dihydro-5-(2-fluorophenyl)-3(R)-(3'-indolyl) methyl-1-methyl-2H-1,4-benzodiazepin-2-one] | 0.27 | IC50 ([1]; IC50 ^125 I-CCK Brain): 18 µM
12 | O=C1Nc2ccc(Cl)cc2C(c2ccccc2)=N[C@@H]1Cc1c[nH]c2ccccc12 [Example 5, 7-Chloro-1,3-dihydro-3(R)-(3'-indolyl)methyl-5-phenyl-2H-1,4-benzodiazepin-2-one] | 3.4 | IC50 ([1]; IC50 ^125 I-CCK Brain): 100 µM
13 | O=C1Nc2ccccc2C(c2ccccc2)=N[C@@H]1Cc1c[nH]c2ccccc12 [Example 6, 1,3-Dihydro-3(R)-(3'-indolyl)methyl-5-phenyl-2H-1,4-benzodiazepin-2-one] | 1.2 | IC50 ([1]; IC50 ^125 I-CCK Brain): 50 µM
14 | Fc1ccccc1C1=N[C@H](Cc2c[nH]c3ccccc23)CNc2ccccc21 [Example 12, 1,3-Dihydro-5-(2-fluorophenyl)-3(R)-(3'-indolyl)methyl-2H-1,4-benzodiazepin] | 4 | –
15 | O=C1Nc2ccc(Cl)cc2C(c2ccccc2)=N[C@@H]1Cc1ccccc1 [Example 13, 7-Chloro-1,3-dihydro-3(R)-benzyl-5-phenyl-2H-1,4-benzodiazepin-2-one] | 80 | –
16 | O=C1Nc2ccc(Cl)cc2C(c2ccccc2)=N[C@@H]1Cc1ccc(OCc2ccccc2)cc1 [Example 16, 7-Chloro-1,3-dihydro-3(R)-(4-benzyloxybenzyl)-5-phenyl-2H-1,4-benzodiazepin-2-one] | > 100 | IC50 ([1]; IC50 ^125 I-CCK Brain): > 100 µM
17 | O=C1Nc2ccc(Cl)cc2C(c2ccccc2)N[C@@H]1Cc1c[nH]c2ccccc12 (stereo partly drawn) [Example 25, 7-Chloro-1,3,4,5-tetrahydro-3(R)-(3'-indolyl)methyl-5-phenyl-2H-1,4-benzodiazepin-2-one] | – | IC50 [1, 2]: > 100 µM; IC50 (CCK receptor (pancreas); [3]): 12 µM
18 | O=C1Nc2ccc(Cl)cc2C(c2ccccc2)N[C@H]1Cc1c[nH]c2ccccc12 (stereo partly drawn) [Example 26, 7-Chloro-1,3,4,5-tetrahydro-3(S)-(3'-indolyl)methyl-5-phenyl-2H-1,4-benzodiazepin-2-one] | – | IC50 [1, 2]: > 100 µM; IC50 (CCK receptor (pancreas); [3]): 75 µM
19 | CC1=N[C@H](Cc2c[nH]c3ccccc23)C(=O)Nc2ccccc21 [Example 29, 1,3-Dihydro-3(R)-(3'-indolyl)methyl-5-methyl-2H-1,4-benzodiazepin-2-one] | – | IC50 (CCK receptor (pancreas); [3]): 48 µM
20 | O=C1Nc2ccccc2C(c2ccccc2F)=N[C@H]1Cc1c[nH]c2ccccc12 [Example 32, 1,3-Dihydro-5-(2-fluorophenyl)-3(S)-(3'-indolyl) methyl-2H-1,4-benzodiazepin-2-one] | 10.6 | –
21 | O=C1[C@@H](Cc2c[nH]c3ccccc23)N=C(c2ccccc2F)c2ccccc2N1CC1CC1 [Example 37, 1-Cyclopropylmethyl-1,3-dihydro-5-(2-fluorophenyl)-3(R)-(3'-indolyl)methyl-2H-1,4-benzodiazepin-2-one] | 2.2 | –
22 | CCCCCN1C(=O)[C@@H](Cc2c[nH]c3ccccc23)N=C(c2ccccc2F)c2ccccc21 [Example 38, 1,3-Dihydro-5-(2-fluorophenyl)-3(R)-(3'-indolyl) methyl-1-pentyl-2H-1,4-benzodiazepin-2-one] | 100 | –
23 | O=C1[C@@H](Cc2c[nH]c3ccccc23)N=C(c2ccccc2F)c2ccccc2N1CC(F)(F)F [Example 40, 1,3-Dihydro-5-(2-fluorophenyl)-3(R)-(3'-indolyl)methyl-1-(2,2,2-trifluoroethyl)-2H-1,4-benzodiazepin-2-one] | 3.6 | –
24 | CN(C)CCN1C(=O)[C@@H](Cc2c[nH]c3ccccc23)N=C(c2ccccc2F)c2ccccc21 [Example 41, 1,3-Dihydro-1-(2-dimethylaminoethyl)-5-(2-fluorophenyl) 3(R)-(3'-indolyl)methyl-2H-1,4-benzodiazepin-2-one] | 100 | –
25 | O=C(O)c1ccccc1C1=N[C@H](Cc2c[nH]c3ccccc23)C(=O)Nc2ccccc21 [Example 58, 5-o-Carboxyphenyl-1,3-dihydro-3(R)-(3+-indolyl)methyl-2H-1,4-benzodiazepin-2-one] | 18 | –
26 | NC(=O)CN1C(=O)[C@@H](Cc2c[nH]c3ccccc23)N=C(c2ccccc2F)c2ccccc21 [Example 123, 1-Carboxamidomethyl-1,3-dihydro-3R-(3-indolylmethyl)-5-(2-fluorophenyl)-2H-1,4-benzodiazepin-2-one] | 2.1 | –
27 | O=C1Nc2ccccc2C(c2ccccc2)=NC1CC1CNc2ccccc21 (centres unmarked) [Example 199, 3-((2,3-Dihydro-1H-indol-3-yl)methyl)-1,3-dihydro-5-phenyl-2H-1,4-benzodiazepin-2-one] | 3.2 | –
28 | CC(C)CC(NC(=O)OC(C)(C)C)C(=O)N1CC(CC2N=C(c3ccccc3)c3ccccc3NC2=O)c2ccccc21 (centres unmarked) [Example 225, (1-((3-((2,3-Dihydro-2-oxo-5-phenyl-1H-1,4-benzodiazepin-3-yl)methyl)-2,3-dihydro-1H-indol-1-yl)carbonyl)-3-methylbutyl)-carbamic acid-1,1-dimethylethyl ester] | 4.7 | –
